Measurements taken from patent US20260374794A1, “COMPOUNDS TARGETING MUTANT OF P53” (JACOBIO PHARMACEUTICALS CO., LTD., priority 2022, published 2026).

Legend:
p53(Y220C)_NUGC-3 = p53(Y220C)_NUGC-3 (Homo sapiens, UniProt P04637, Y220C); test: Reporter gene assay (NUGC-3_P53_Luc cells); type: cell-based; conditions: 6 hours, 37 °C, luciferase, normalized to Ref-1a 10 μM, EC50 = concentration at 50% Activity, read-out: p53(Y220C)_NUGC-3 EC50
Experimental: NUGC-3_P53_Luc single clonal cell line was established using pGL4.38[luc2P/p53 RE/Hygro] Vector (E365A, promega). NUGC-3_P53_Luc single clonal cells were cultured in 37 °C cell incubator before use. NUGC-3_P53_Luc cells were collected and washed twice with PBS to remove phenol red and then resuspended in medium to a proper concentration. Tested compound dilutions were transferred into 384 well assay plates (PerkinElmer). A desired number of cells was seeded into the assay plate and cultured for 6 hours at 37 °C cell incubator. Britelite plus Luciferase Assay Reagent were added into each well and the luminescence value was recorded on Envision. The percent of activity value of compounds treated wells was normalized between high control and low control. Wells containing cells and Ref-la (10 μM) served as high control, and wells containing cells and same percentage of DMSO served as low control. Activity value (%)=(Luminescence readoutCompound treated−Luminescence readoutLow control)/(Luminescence readoutHigh control−Luminescence readoutLow control)*100%. Then the data were analyzed either by fitting a 4-parameter logistic model or by Excel to calculate EC50 values and the EC50 was the concentration at 50% Activity on the curve.

p53(Y220C) = target: T1, p53(Y220C) (Homo sapiens, UniProt P04637, Y220C); test: In vitro DNA binding assay (HTRF), His-p53 Y220C (94-294) with biotinylated p53 consensus DNA; type: biochemical; conditions: HTRF; 27 °C; His-p53 Y220C (94-294) 2.5 nM; biotinylated DNA 10 nM; normalized to 2 μM Ref-1a; EC50 = concentration at 50% Activation; read-out: p53(Y220C) EC50
T1 construct: His-p53 Y220C (94-294) protein
Experimental: After His-p53 Y220C (94-294) protein was placed with a compound in the present of MAb Anti His-Tb cryptate (Cisbio, Cat. NO. 61HI2TLA) in a 384 well microplate (Greiner) for 15 min at 25 °C, the assay plate was transferred into 27 °C incubator and incubated for 60 min. Biotinalyted p53 consensus DNA (ID: p53-SEQUENCE 2 —F: 5′(biotin)-[…] 3′ —R: 5′ […] 3′) was added into the assay plate in the present of Streptaidin-d2 (Cisbio, Cat. NO. 610SADLF) cryptate (Final concentration: 20 mM HEPES pH=7.4, 75 mM KCl, 1 mM MgCl2, 0.1% (w/v) BSA, 1 mM DTT, 2.5 nM His-P53 Y220C (94-294) protein, 0.33 nM MAb Anti His-Tb cryptate, 2.5 nM Streptaidin-d2 cryptate, 10 nM Biotinalyted DNA) and incubated for another 60 min. Wells containing 2 μM reference compound Ref-1a served as high control, and wells containing same percentage of DMSO served as low control. Homogeneous time-resolved fluorescence (HTRF) signals were read on Tecan Spark multimode microplate reader. HTRF ratios for each individual well were calculated by equation: HTRF ratio=(Signal F665/Signal F620)*1000. The percent of activation of compounds treated wells were normalized between high control and low control (% Activation=(HTRF ratiocompound treated−HTRF ratiolow control)/(HTRF ratiohigh control−HTRF ratiolow control)*100%). Then the data were analyzed either by fitting a 4-parameter logistic model or by Excel to calculate EC50 values. And the EC50 was the concentration at 50% Activation on the curve.

NUGC-3 (P53 Y220C) = test: Cell viability assay (CellTiter-Glo); type: cell-based; conditions: Homo sapiens, 144 h, NUGC-3 cells, 6 days, 37 °C
Experimental: Cells were collected and counted. A desired number of cells was seeded into 96-well microplate and cultured in 37 °C cell incubator overnight. Compounds dissolved in cell culture medium were added into cell plate and cultured for 6 days. After balancing CellTiter-Glo reagent and cells at room temperature for 30 min, equal volume of CellTiter-Glo reagents was added to assay plate and shaken for 2 min for cell lysis. The cells were balanced at room temperature for 10 minutes and Luminescence signal was read using Envision. The percent of cell viability for compounds treated wells were normalized between High control and low control. Wells containing cell culture medium and same percentage DMSO served as Low control. Wells containing cells and same percentage DMSO served as High control. Cell viability (%)=(Luminescence readoutCompound treated−Luminescence readoutLow control)/(Luminescence readoutHigh control−Luminescence readoutLow control)*100%. Then the data were analyzed either by fitting a 4-parameter logistic model or by Excel to calculate IC50 values. And the IC50 was the concentration at […] Cell viability on the curve.

Row | Compound | EC50 (p53(Y220C)_NUGC-3) [nM] | EC50 (p53(Y220C)) [nM] | IC50 (NUGC-3 (P53 Y220C)) [nM]
1 | COc1cc(P(C)(C)=O)ccc1NCC#Cc1sc2c(N[C@@H]3CC[N@@+](C)([O-])C[C@@H]3F)cccc2c1CC(F)(F)F (single isomer, unassigned) [Example 7] | 3940 | 81 | 
2 | COc1cc([S@](C)(=N)=O)ccc1NCC#Cc1sc2c(N[C@@H]3CC[N@+](C)([O-])C[C@@H]3F)cccc2c1CC(F)(F)F (single isomer, unassigned) [Example 8] | 7230 | 38 | 
3 | COc1cc([S@](C)(=N)=O)ccc1NCC#Cc1sc2c(N[C@@H]3CC[N@@+](C)([O-])C[C@@H]3F)cccc2c1CC(F)(F)F (single isomer, unassigned) [Example 9] | 1900 | 62 | 
4 | COc1cc(P(C)(C)=O)ccc1NCC#Cc1sc2c(N[C@@H]3CC[N@+](C)([O-])C[C@@H]3F)cccc2c1CC(F)(F)F (single isomer, unassigned) [Example 10] | 11100 | 53 | 
5 | CN1CC[C@@H](Nc2cccc3c(CC(F)(F)F)c(C#CCNc4ccc(P(C)(C)=O)cc4-c4cc[nH]n4)sc23)[C@@H](F)C1 [Example 3, (4-((3-(7-(((3S,4R)-3-fluoro-1-methylpiperidin-4-yl)amino)-3-(2,2,2-trifluoroethyl)benzo[b]thiophen-2-yl)prop-2-yn-1-yl)amino)-3-(1H-pyrazol-3-yl)phenyl)dimethylphosphine oxide] | 55 |  | 1400
6 | COc1cc([S@](=N)(=O)C(C)C)ccc1NCC#Cc1sc2c(N[C@@H]3CCN(C)C[C@@H]3F)cccc2c1CC(F)(F)F [Example 26, (R)-(4-((3-(7-(((3S,4R)-3-fluoro-1-methylpiperidin-4-yl)amino)-3-(2,2,2-trifluoroethyl)benzo[b]thiophen-2-yl)prop-2-yn-1-yl)amino)-3-methoxyphenyl)(imino)(isopropyl)-16-sulfanone] | 208 | 70 | 1840
7 | COc1cc(P(C)(C)=O)ccc1NCC#Cc1sc2c(N[C@@H]3CCCN(C)C3)cccc2c1CC(F)(F)F [Example 28, (R)-(3-methoxy-4-((3-(7-((1-methylpiperidin-3-yl)amino)-3-(2,2,2-trifluoroethyl)benzo[b]thiophen-2-yl)prop-2-yn-1-yl)amino)phenyl)dimethylphosphine oxide] | 244 | 77 | 1550
8 | COc1c(NCC#Cc2sc3c(N[C@@H]4CCN(C)C[C@@H]4F)cccc3c2CC(F)(F)F)ccc(P(C)(C)=O)c1C(F)(F)F [Example 42, (4-((3-(7-(((3S,4R)-3-fluoro-1-methylpiperidin-4-yl)amino)-3-(2,2,2-trifluoroethyl)benzo[b]thiophen-2-yl)prop-2-yn-1-yl)amino)-3-methoxy-2-(trifluoromethyl)phenyl)dimethylphosphine oxide] | 252 | 93 | 1890

Further lines, with some results ahead:

Row | EC50 (p53(Y220C)_NUGC-3) [nM] | EC50 (p53(Y220C)) [nM] | Compound | IC50 (NUGC-3 (P53 Y220C)) [nM]
9 | 196 |  | CN1CC[C@@H](Nc2cccc3c(CC(F)(F)F)c(C#CCNc4ccc(P(C)(C)=O)c5ccoc45)sc23)[C@@H](F)C1 [Example 2, (7-((3-(7-(((3S,4R)-3-fluoro-1-methylpiperidin-4-yl)amino)-3-(2,2,2-trifluoroethyl)benzo[b]thiophen-2-yl)prop-2-yn-1-yl)amino)benzofuran-4-yl)dimethylphosphine oxide] | 
10 | 138 | 104 | COc1cc(P(C)(C)=O)ccc1NCC#Cc1sc2c(NC3CN(C)CC3F)cccc2c1CC(F)(F)F (stereo not drawn) [Example 13, (4-((3-(7-((4-fluoro-1-methylpyrrolidin-3-yl)amino)-3-(2,2,2-trifluoroethyl)benzo[b]thiophen-2-yl)prop-2-yn-1-yl)amino)-3-methoxyphenyl)dimethylphosphine oxide] | 1390
11 | 119 | 68 | COc1cc(S(=N)(=O)C2CCOCC2)ccc1NCC#Cc1sc2c(NC3CCN(C)CC3F)cccc2c1CC(F)(F)F [Example 24, (S)-(4-((3-(7-(((3S,4R)-3-fluoro-1-methylpiperidin-4-yl)amino)-3-(2,2,2-trifluoroethyl)benzo[b]thiophen-2-yl)prop-2-yn-1-yl)amino)-3-methoxyphenyl)(imino)(tetrahydro-2H-pyran-4-yl)-16-sulfanone] | 900
12 | 126 | 29 | COc1cc(P(C)(C)=O)ccc1NCC#Cc1sc2c(N[C@@H]3CCN(C)C[C@@H]3F)cccc2c1[C@H](O)C(F)(F)F [Example 31, (4-((3-(7-(((3S,4R)-3-fluoro-1-methylpiperidin-4-yl)amino)-3-((S)-2,2,2-trifluoro-1-hydroxyethyl)benzo[b]thiophen-2-yl)prop-2-yn-1-yl)amino)-3-methoxyphenyl)dimethylphosphine oxide] | 870
13 | 102 | 55 | COc1cc(P(C)(C)=O)ccc1NCC#Cc1sc2c(N[C@@H]3CCN(C)C[C@@H]3F)cccc2c1[C@@H](O)C(F)(F)F [Example 33, (4-((3-(7-(((3S,4R)-3-fluoro-1-methylpiperidin-4-yl)amino)-3-((R)-2,2,2-trifluoro-1-hydroxyethyl)benzo[b]thiophen-2-yl)prop-2-yn-1-yl)amino)-3-methoxyphenyl)dimethylphosphine oxide] | 1440
14 | 28 | 20 | COc1cc(P(C)(C)=O)ccc1NCC#Cc1sc2c(N[C@H]3CCN(C)C[C@H]3F)cccc2c1[C@@H](O)C(F)(F)F [Example 34, (4-((3-(7-(((3R,4S)-3-fluoro-1-methylpiperidin-4-yl)amino)-3-((R)-2,2,2-trifluoro-1-hydroxyethyl)benzo[b]thiophen-2-yl)prop-2-yn-1-yl)amino)-3-methoxyphenyl)dimethylphosphine oxide] | 380
15 | 117 | 81 | COc1cc(S(C)(=O)=O)ccc1NCC#Cc1sc2c(N[C@@H]3CCN(C)C[C@@H]3F)cccc2c1CC(F)(F)F [Example 36, (3S,4R)-3-fluoro-N-(2-(3-((2-methoxy-4-(methylsulfonyl)phenyl)amino)prop-1-yn-1-yl)-3-(2,2,2-trifluoroethyl)benzo[b]thiophen-7-yl)-1-methylpiperidin-4-amine] | 590
16 | 137 | 56 | COc1c(NCC#Cc2sc3c(N[C@@H]4CCN(C)C[C@@H]4F)cccc3c2CC(F)(F)F)ccc(P(C)(C)=O)c1C [Example 41, (4-((3-(7-(((3S,4R)-3-fluoro-1-methylpiperidin-4-yl)amino)-3-(2,2,2-trifluoroethyl)benzo[b]thiophen-2-yl)prop-2-yn-1-yl)amino)-3-methoxy-2-methylphenyl)dimethylphosphine oxide] | 1230
17 | 50 |  | COc1cc(S(C)(=O)=O)ccc1NCC#Cc1cc2c(N[C@@H]3CCN(C)C[C@@H]3F)cccc2n1CC(F)(F)F [Ref-1a, reference compound] | 
